{
  "source": "patent US20070049593A1",
  "about": "(priority 2004, published 2007)",
  "note": "Structures can show the parent of a compound that is named as a salt.",
  "data": [
    {"molecular_target": "T1, HCV polymerase (Hepatitis C virus genotype 1b, UniProt P26663)", "T1 construct": "a region encoding NS5B (J Virol 1991 March, 65(3), 1105-13, 544 amino acids after deletion of 47 amino acids on the C-terminal); 6xHis (C); made in house; host or cells: Escherichia coli", "T1 sequence (P26663 2420-2963)": "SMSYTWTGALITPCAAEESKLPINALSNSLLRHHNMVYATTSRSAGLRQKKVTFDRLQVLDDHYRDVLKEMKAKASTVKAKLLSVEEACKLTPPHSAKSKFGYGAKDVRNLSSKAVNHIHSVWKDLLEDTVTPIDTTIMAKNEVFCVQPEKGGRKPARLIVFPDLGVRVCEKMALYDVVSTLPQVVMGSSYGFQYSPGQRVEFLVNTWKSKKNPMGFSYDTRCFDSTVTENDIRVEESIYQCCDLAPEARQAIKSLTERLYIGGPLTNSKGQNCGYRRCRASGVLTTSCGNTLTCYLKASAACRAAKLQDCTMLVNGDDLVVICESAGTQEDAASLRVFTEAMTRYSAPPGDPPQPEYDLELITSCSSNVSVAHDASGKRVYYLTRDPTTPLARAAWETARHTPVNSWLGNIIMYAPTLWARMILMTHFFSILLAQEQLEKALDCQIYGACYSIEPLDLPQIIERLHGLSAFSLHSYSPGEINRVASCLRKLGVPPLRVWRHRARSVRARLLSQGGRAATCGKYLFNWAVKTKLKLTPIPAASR", "assay": "biochemical", "set-up": "species or system HCV BK strain", "how_it_was_run": "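His-tagged NS5B (BK strain, 47-aa C-terminal deletion, E. coli-expressed) at 0.5 μg/ml copied 5 μg/ml run-off RNA bearing the HCV 3′ UTR with 2 μM UTP plus [3H]UTP, 50 μM ATP/GTP, in pH 7.5 Tris with 5 mM MgCl2, 25 °C, 90 min. TCA-precipitated RNA was counted and IC50 calculated.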", "units": {"IC50": "nM"}, "values": [
      {"smiles": "CCN1CCC(OCCN2CCn3c(c(C4CCCCC4)c4ccc(C(=O)O)cc43)-c3ccc(Cl)cc32)CC1", "note": "[Example 1-317, 3-chloro-13-cyclohexyl-5-[2-(1-ethylpiperidin-4-yloxy)ethyl]-6,7-dihydro-5H-benzo[5,6][1,4]diazepino[7,1-a]indole-10-carboxylic acid dihydrochloride]", "IC50": "< 100"},
      {"smiles": "CN1CCn2c(c(C3CCCCC3)c3ccc(C(=O)NC4(C(=O)Nc5ccc(C=CC(=O)O)cc5)CCC4)cc32)-c2ccccc2C1", "note": "[Example 11-8, (E)-3-[4-({1-[(14-cyclohexyl-6-methyl-5,6,7,8-tetrahydrobenzo[6,7][1,4]diazocino[8,1-a]indole-11-carbonyl)amino]cyclobutanecarbonyl}amino)phenyl]acrylic acid monohydrochloride]", "IC50": "< 100"},
      {"smiles": "O=C(O)c1ccc2c(C3CCCCC3)c3n(c2c1)CCN(CCN1CCC(C(F)(F)F)CC1)c1ccccc1-3", "note": "[Example 1-172, 13-cyclohexyl-5-[2-(4-trifluoromethylpiperidin-1-yl)ethyl]-6,7-dihydro-5H-benzo[5,6][1,4]diazepino[7,1-a]indole-10-carboxylic acid dihydrochloride]", "IC50": "< 100"},
      {"smiles": "COc1ccc2c(c1)OCCn1c-2c(C2CCCCC2)c2ccc(C(=O)N[C@@H](CCC(N)=O)C(=O)O)cc21", "note": "[Example 2-372, (S)-4-carbamoyl-2-[(12-cyclohexyl-3-methoxy-6,7-dihydro-5-oxa-7a-azadibenzo[a,e]azulene-9-carbonyl)amino]butyric acid]", "IC50": "< 100"},
      {"smiles": "CCN1CCCCC1CCN1CCn2c(c(C3CCCCC3)c3ccc(C(=O)O)cc32)-c2ccccc21", "note": "(centres unmarked) [Example 1-178, 13-cyclohexyl-5-[2-(1-ethylpiperidin-2-yl)ethyl]-6,7-dihydro-5H-benzo[5,6][1,4]diazepino[7,1-a]indole-10-carboxylic acid dihydrochloride]", "IC50": "< 100"},
      {"smiles": "CC1CCCCN1C(=O)CN1CCn2c(c(C3CCCCC3)c3ccc(C(=O)O)cc32)-c2ccccc21", "note": "(centres unmarked) [Example 1-137, 13-cyclohexyl-5-[2-(2-methylpiperidin-1-yl)-2-oxoethyl]-6,7-dihydro-5H-benzo[5,6][1,4]diazepino[7,1-a]indole-10-carboxylic acid]", "IC50": "< 100"},
      {"smiles": "CC(C)Oc1ccc2c(c1)N(CCN1CCCCC1)CCn1c-2c(C2CCCCC2)c2ccc(C(=O)O)cc21", "note": "[Example 1-227, 13-cyclohexyl-3-isopropoxy-5-[2-(piperidin-1-yl)ethyl]-6,7-dihydro-5H-benzo[5,6][1,4]diazepino[7,1-a]indole-10-carboxylic acid dihydrochloride]", "IC50": "< 100"},
      {"smiles": "Cc1ccc2c(c1)N(CCN1CCOC(C)C1)CCn1c-2c(C2CCCCC2)c2ccc(C(=O)O)cc21", "note": "(centres unmarked) [Example 1-329, 13-cyclohexyl-3-methyl-5-[2-(2-methylmorpholin-4-yl)ethyl]-6,7-dihydro-5H-benzo[5,6][1,4]diazepino[7,1-a]indole-10-carboxylic acid dihydrochloride]", "IC50": "< 100"},
      {"smiles": "CCOc1ccc2c(c1)N(C)CCn1c-2c(C2CCCCC2)c2ccc(C(=O)O)cc21", "note": "[Example 1-592, 13-cyclohexyl-3-ethoxy-5-methyl-6,7-dihydro-5H-benzo[5,6][1,4]diazepino[7,1-a]indole-10-carboxylic acid]", "IC50": "< 100"},
      {"smiles": "CN1CCCC1CCN1CCn2c(c(C3CCCCC3)c3ccc(C(=O)O)cc32)-c2ccc(Cl)cc21", "note": "(centres unmarked) [Example 1-426, 3-chloro-13-cyclohexyl-5-[2-(1-methylpyrrolidin-2-yl)ethyl]-6,7-dihydro-5H-benzo[5,6][1,4]diazepino[7,1-a]indole-10-carboxylic acid dihydrochloride]", "IC50": "< 100"},
      {"smiles": "COCC1CCCN(CCN2CCn3c(c(C4CCCCC4)c4ccc(C(=O)O)cc43)-c3ccccc32)C1", "note": "(centres unmarked) [Example 1-200, 13-cyclohexyl-5-[2-(3-methoxymethylpiperidin-1-yl)ethyl]-6,7-dihydro-5H-benzo[5,6][1,4]diazepino[7,1-a]indole-10-carboxylic acid dihydrochloride]", "IC50": "< 100"}
    ]}
  ]
}
